Legend:
Plasmodium falciparum [1] = assay: Antimalarial activity against Plasmodium falciparum 3D7 infected in ARh+ human erythrocytes after 42 to 48 hrs by Picogreen staining-based 96 well microplate assay; assay type: functional, organism-based
Plasmodium falciparum [2] = assay: Antimalarial activity against Plasmodium falciparum 3D7 infected in ARh+ human erythrocytes at 0.1 uM after 42 to 48 hrs by Picogreen staining-based 96 well microplate assay; assay type: functional; conditions: read-out: GI
Plasmodium falciparum [3] = assay: Antimalarial activity against Plasmodium falciparum 3D7 infected in ARh+ human erythrocytes at 0.01 uM after 42 to 48 hrs by Picogreen staining-based 96 well microplate assay; assay type: functional; conditions: read-out: GI
Plasmodium falciparum [4] = assay: Antimalarial activity against Plasmodium falciparum 3D7 infected in ARh+ human erythrocytes at 10 uM after 42 to 48 hrs by Picogreen staining-based 96 well microplate assay; assay type: functional; conditions: read-out: GI
Plasmodium falciparum [5] = assay: Antimalarial activity against Plasmodium falciparum 3D7 infected in ARh+ human erythrocytes at 1 uM after 42 to 48 hrs by Picogreen staining-based 96 well microplate assay; assay type: functional; conditions: read-out: GI
[6] = biological target: Voltage-gated inwardly rectifying potassium channel KCNH2 (Homo sapiens, UniProt Q12809); assay: Inhibition of human ERG expressed in Xenopus laevis oocytes by two-electrode voltage clamp assay; assay type: cell-based
Sequence of Voltage-gated inwardly rectifying potassium channel KCNH2 (Q12809 whole entry): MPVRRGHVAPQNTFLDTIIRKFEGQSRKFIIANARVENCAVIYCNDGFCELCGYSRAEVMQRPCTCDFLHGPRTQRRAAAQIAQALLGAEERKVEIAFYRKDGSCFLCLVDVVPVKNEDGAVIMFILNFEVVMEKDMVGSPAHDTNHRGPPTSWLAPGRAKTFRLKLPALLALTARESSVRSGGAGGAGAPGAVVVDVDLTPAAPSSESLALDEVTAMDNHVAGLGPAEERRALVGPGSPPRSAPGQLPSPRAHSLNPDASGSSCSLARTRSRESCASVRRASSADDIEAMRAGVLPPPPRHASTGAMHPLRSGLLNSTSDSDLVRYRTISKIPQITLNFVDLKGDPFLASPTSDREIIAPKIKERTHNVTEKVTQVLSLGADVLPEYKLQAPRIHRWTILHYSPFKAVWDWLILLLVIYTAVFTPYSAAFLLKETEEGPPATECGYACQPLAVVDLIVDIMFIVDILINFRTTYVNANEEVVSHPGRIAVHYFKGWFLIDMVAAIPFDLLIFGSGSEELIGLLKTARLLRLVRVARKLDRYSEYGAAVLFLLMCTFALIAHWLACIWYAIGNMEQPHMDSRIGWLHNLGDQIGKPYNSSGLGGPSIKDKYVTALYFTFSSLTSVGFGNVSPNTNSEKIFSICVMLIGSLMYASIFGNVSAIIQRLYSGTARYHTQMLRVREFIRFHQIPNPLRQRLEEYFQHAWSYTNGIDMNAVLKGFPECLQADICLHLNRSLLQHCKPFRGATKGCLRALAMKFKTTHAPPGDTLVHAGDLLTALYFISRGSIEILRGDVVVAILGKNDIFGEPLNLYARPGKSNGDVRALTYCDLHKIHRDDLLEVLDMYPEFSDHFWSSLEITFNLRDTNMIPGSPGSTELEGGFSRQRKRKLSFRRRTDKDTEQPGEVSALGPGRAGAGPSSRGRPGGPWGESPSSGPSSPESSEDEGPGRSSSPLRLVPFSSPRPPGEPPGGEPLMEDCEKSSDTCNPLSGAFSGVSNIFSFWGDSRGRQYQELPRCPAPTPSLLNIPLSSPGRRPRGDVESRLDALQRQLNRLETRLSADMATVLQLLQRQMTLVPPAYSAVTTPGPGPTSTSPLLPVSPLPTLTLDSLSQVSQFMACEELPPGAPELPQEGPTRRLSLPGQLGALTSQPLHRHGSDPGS

hERG (KCNH2) = assay: Selectivity index, ratio of IC50 for inhibition of human ERG expressed in Xenopus laevis oocytes to IC50 for Plasmodium falciparum 3D7; assay type: toxicity, cell-based; conditions: read-out: Ratio IC50

| Structure (SMILES) | IC50 (Plasmodium falciparum [1]) [nM] | inhibition of growth at 0.1 µM (Plasmodium falciparum [2]) [%] | inhibition of growth at 0.01 µM (Plasmodium falciparum [3]) [%] | inhibition of growth at 10 µM (Plasmodium falciparum [4]) [%] | inhibition of growth at 1 µM (Plasmodium falciparum [5]) [%] | IC50 [6] [nM] | selectivity ratio (hERG (KCNH2)) |
| --- | --- | --- | --- | --- | --- | --- | --- |
| CCC(CC)Cn1c(NC2CCN(CCc3ccc(OC)cc3)CC2)nc2ccccc21 | 240 | 16 | 0 | 95 | 100 |  |  |
| CCCn1c(NC2CCN(CCc3ccc(OC)cc3)CC2)nc2ccccc21 | 416 | 3 | 0 | 100 | 82 |  |  |
| COc1ccc(CCN2CCC(Nc3nc4ccccc4[nH]3)CC2)cc1 | 78 to 79.7 | 52 | 6 | 100 | 100 | 164 | 2.1 |
| Fc1ccc(Cn2c(NC3CCN(CC4CC4)CC3)nc3ccccc32)cc1 | 2240 | 0 | 0 | 98 | 21 |  |  |
| CCCCCCn1c(NC2CCN(CCc3ccc(OC)cc3)CC2)nc2ccccc21 | 29 to 30 | 95 | 6 | 100 | 100 |  |  |
| Fc1ccc(Cn2c(NC3CCN(CC4CCCCC4)CC3)nc3ccccc32)cc1 | 857 | 14 | 0 | 100 | 48 |  |  |
| COc1ccc(CCN2CCN(Cc3nc4ccccc4n3Cc3ccc(F)cc3)CC2)cc1 | 4640 | 0 | 3 | 72 | 12 |  |  |
| COc1ccc(CCN2CCC(Nc3nc4ccccc4n3Cc3ccccc3)CC2)cc1 | 344 | 14 | 0 | 100 | 82 |  |  |
| COc1ccc(CCN2CCC(Nc3nc4ccccc4n3Cc3ccc(F)cc3)CC2)cc1 [ASTEMIZOLE] | 162 to 171 | 37 | 0 | 99 | 91 |  |  |
| Fc1ccc(Cn2c(NC3CCNCC3)nc3ccccc32)cc1 [TECASTEMIZOLE] | 2300 | 0 | 5 | 100 | 17 |  |  |

Second part, led by results:

| IC50 (Plasmodium falciparum [1]) [nM] | Structure (SMILES) | inhibition of growth at 0.1 µM (Plasmodium falciparum [2]) [%] | inhibition of growth at 0.01 µM (Plasmodium falciparum [3]) [%] | inhibition of growth at 10 µM (Plasmodium falciparum [4]) [%] | inhibition of growth at 1 µM (Plasmodium falciparum [5]) [%] | IC50 [6] [nM] | selectivity ratio (hERG (KCNH2)) |
| --- | --- | --- | --- | --- | --- | --- | --- |
| > 10000 | O=C(c1ccccc1)N1CCC(Nc2nc3ccccc3n2Cc2ccc(F)cc2)CC1 | 0 | 5 | 18 | 8 |  |  |
| > 10000 | O=C(Nc1ccccc1)N1CCC(Nc2nc3ccccc3n2Cc2ccc(F)cc2)CC1 | 3 | 0 | 35 | 7 |  |  |
| > 10000 | O=C(Nc1ccc(F)cc1F)N1CCC(Nc2nc3ccccc3n2Cc2ccc(F)cc2)CC1 | 0 | 2 | 39 | 4 |  |  |
| > 10000 | O=C(c1ccc(Cl)cc1)N1CCC(Nc2nc3ccccc3n2Cc2ccc(F)cc2)CC1 | 3 | 4 | 36 | 5 |  |  |
| > 10000 | CC(C)(C)NC(=O)N1CCC(Nc2nc3ccccc3n2Cc2ccc(F)cc2)CC1 | 2 | 0 | 43 | 6 |  |  |
| 8140 | COc1ccc(NC(=O)N2CCC(Nc3nc4ccccc4n3Cc3ccc(F)cc3)CC2)c(OC)c1 | 1 | 0 | 57 | 5 |  |  |
| 718 | Fc1ccc(Cn2c(NC3CCN(C/C=C/c4ccccc4)CC3)nc3ccccc32)cc1 | 12 | 1 | 100 | 55 |  |  |
| 125 | Fc1ccc(Cn2c(NC3CCN(CCc4ccccc4)CC3)nc3ccccc32)cc1 | 43 | 9 | 100 | 90 |  |  |
| 3090 | CN1CCC(Nc2nc3ccccc3n2Cc2ccc(F)cc2)CC1 | 0 | 0 | 100 | 2 |  |  |

— ChEMBL document CHEMBL4177615 (Bioorg Med Chem, 2017)
